Measurements taken from patent US8758816B2, “Compositions comprising azelastine and methods of use thereof” (priority 2004, dated 2014).
Counter-ions that a name gives are not always drawn.

System: patients with seasonal allergic rhinitis (SAR)
Assay: MP 428 study: individual symptom severity scores (runny nose, itchy nose, sneezing, congestion; 0-3 scale)
Assay type: in vivo, human
Conditions: Intent-to-Treat Population
Experimental: A two-week, randomized, double-blind study, which evaluated the effects of the co-administration of ASTELIN® (azelastine hydrochloride (HCl)) and FLONASE® (fluticasone propionate) compared to either product alone in patients with seasonal allergic rhinitis (SAR) was conducted during the 2006 Texas mountain cedar season. After a 5-day placebo lead-in period, 151 patients with moderate-to-severe allergic rhinitis symptoms were randomized to either: (1) (49 total patients) ASTELIN® (azelastine hydrochloride (HCl)) plus placebo saline nasal spray 2 sprays per nostril, 15 minutes apart, twice daily (AM & PM); (2) (50 total patients) FLONASE® (fluticasone propionate) plus placebo saline nasal spray, 2 sprays per nostril, 15 minutes apart, once daily (AM) and two sessions of placebo saline nasal spray, 2 sprays per nostril, 15 minutes apart (PM); or (3) (52 total patients) the co-administration of ASTELIN® (azelastine hydrochloride (HCl)) 2 sprays per nostril plus FLONASE® (fluticasone propionate) 2 sprays per nostril (AM), 15 minutes apart, and ASTELIN® (azelastine hydrochloride (HCl)) 2 sprays per nostril plus placebo saline nasal spray, 15 minutes apart, (PM) for a 2-week double-blind treatment period.
The primary efficacy variable was the change from baseline in the Total Nasal Symptom Score (TNSS), which comprised sneezing, itchy nose, runny nose, and nasal congestion (individual symptoms scores were assigned a value between 0 and 3, where 0=no symptoms and 3=severe symptoms). This study was not statistically designed to assess the differences between ASTELIN® and FLONASE®.
The results of the clinical trial are summarized and presented in Appendix A hereinbelow and in FIGS. 1-6. […] FIGS. 2-5 show the mean improvement in severity score (0-3 scale) from baseline for the symptoms of runny nose, itchy nose, sneezing and congestion, respectively.

CN1CCCC(n2nc(Cc3ccc(Cl)cc3)c3ccccc3c2=O)CC1 (racemic) [Azelastine, (±)-1-(2H)-phthalazinone, 4-[(4-chlorophenyl)methyl]-2-(hexahydro-1-methyl-1H-azepin-4-yl)-, mono-hydrochloride]
Percent Change from Baseline in AM and PM Combined Nasal Symptom Score: Congestion, LS Mean (Day 5): −18.24%
Percent Change from Baseline in AM and PM Combined Nasal Symptom Score: Congestion, Mean (Day 5): −18.92%
Percent Change from Baseline in AM and PM Combined Nasal Symptom Score: Congestion, Median (Day 5): −16.67%
Percent Change from Baseline in AM and PM Combined Nasal Symptom Score: Itchy Nose, LS Mean (Day 5): −24.75%
Percent Change from Baseline in AM and PM Combined Nasal Symptom Score: Itchy Nose, Mean (Day 5): −24.24%
Percent Change from Baseline in AM and PM Combined Nasal Symptom Score: Itchy Nose, Median (Day 5): −15.49%
Percent Change from Baseline in AM and PM Combined Nasal Symptom Score: Runny Nose, LS Mean (Day 5): −18.46%
Percent Change from Baseline in AM and PM Combined Nasal Symptom Score: Runny Nose, Mean (Day 5): −18.42%
Percent Change from Baseline in AM and PM Combined Nasal Symptom Score: Runny Nose, Median (Day 5): −11.76%
Percent Change from Baseline in AM and PM Combined Nasal Symptom Score: Sneezing, LS Mean (Day 5): −33.21%
Percent Change from Baseline in AM and PM Combined Nasal Symptom Score: Sneezing, Mean (Day 5): −32.23%
Percent Change from Baseline in AM and PM Combined Nasal Symptom Score: Sneezing, Median (Day 5): −25.23%
Change from Baseline in AM and PM Combined Nasal Symptom Score: Congestion, LS Mean (Day 6): −1.04
Change from Baseline in AM and PM Combined Nasal Symptom Score: Congestion, Mean (Day 6): −1.09
Change from Baseline in AM and PM Combined Nasal Symptom Score: Congestion, Median (Day 6): −0.92
Change from Baseline in AM and PM Combined Nasal Symptom Score: Itchy Nose, LS Mean (Day 6): −1.14
Change from Baseline in AM and PM Combined Nasal Symptom Score: Itchy Nose, Mean (Day 6): −1.14
Change from Baseline in AM and PM Combined Nasal Symptom Score: Itchy Nose, Median (Day 6): −0.73
Change from Baseline in AM and PM Combined Nasal Symptom Score: Runny Nose, LS Mean (Day 6): −0.94
Change from Baseline in AM and PM Combined Nasal Symptom Score: Runny Nose, Mean (Day 6): −0.95
Change from Baseline in AM and PM Combined Nasal Symptom Score: Runny Nose, Median (Day 6): −1.00
Change from Baseline in AM and PM Combined Nasal Symptom Score: Sneezing, LS Mean (Day 6): −1.27
Change from Baseline in AM and PM Combined Nasal Symptom Score: Sneezing, Mean (Day 6): −1.26
Change from Baseline in AM and PM Combined Nasal Symptom Score: Sneezing, Median (Day 6): −1.30
Percent Change from Baseline in AM and PM Combined Nasal Symptom Score: Congestion, LS Mean (Day 6): −18.26%
Percent Change from Baseline in AM and PM Combined Nasal Symptom Score: Congestion, Mean (Day 6): −18.97%
Percent Change from Baseline in AM and PM Combined Nasal Symptom Score: Congestion, Median (Day 6): −18.37%
Percent Change from Baseline in AM and PM Combined Nasal Symptom Score: Itchy Nose, LS Mean (Day 6): −24.98%
Percent Change from Baseline in AM and PM Combined Nasal Symptom Score: Itchy Nose, Mean (Day 6): −25.00%
Percent Change from Baseline in AM and PM Combined Nasal Symptom Score: Itchy Nose, Median (Day 6): −15.49%
Percent Change from Baseline in AM and PM Combined Nasal Symptom Score: Runny Nose, LS Mean (Day 6): −18.89%
Percent Change from Baseline in AM and PM Combined Nasal Symptom Score: Runny Nose, Mean (Day 6): −18.89%
Percent Change from Baseline in AM and PM Combined Nasal Symptom Score: Runny Nose, Median (Day 6): −21.74%
Percent Change from Baseline in AM and PM Combined Nasal Symptom Score: Sneezing, LS Mean (Day 6): −32.36%
Percent Change from Baseline in AM and PM Combined Nasal Symptom Score: Sneezing, Mean (Day 6): −31.52%
Percent Change from Baseline in AM and PM Combined Nasal Symptom Score: Sneezing, Median (Day 6): −28.00%
Change from Baseline in AM and PM Combined Nasal Symptom Score: Congestion, LS Mean (Day 7): −1.17
Change from Baseline in AM and PM Combined Nasal Symptom Score: Congestion, Mean (Day 7): −1.23
Change from Baseline in AM and PM Combined Nasal Symptom Score: Congestion, Median (Day 7): −1.00
Change from Baseline in AM and PM Combined Nasal Symptom Score: Itchy Nose, LS Mean (Day 7): −1.18
Change from Baseline in AM and PM Combined Nasal Symptom Score: Itchy Nose, Mean (Day 7): −1.17
Change from Baseline in AM and PM Combined Nasal Symptom Score: Itchy Nose, Median (Day 7): −0.90
Change from Baseline in AM and PM Combined Nasal Symptom Score: Runny Nose, LS Mean (Day 7): −0.93
Change from Baseline in AM and PM Combined Nasal Symptom Score: Runny Nose, Mean (Day 7): −0.95
Change from Baseline in AM and PM Combined Nasal Symptom Score: Runny Nose, Median (Day 7): −1.07
Change from Baseline in AM and PM Combined Nasal Symptom Score: Sneezing, LS Mean (Day 7): −1.76
Change from Baseline in AM and PM Combined Nasal Symptom Score: Sneezing, Mean (Day 7): −1.75
Change from Baseline in AM and PM Combined Nasal Symptom Score: Sneezing, Median (Day 7): −1.55
Percent Change from Baseline in AM and PM Combined Nasal Symptom Score: Congestion, LS Mean (Day 7): −21.14%
Percent Change from Baseline in AM and PM Combined Nasal Symptom Score: Congestion, Mean (Day 7): −22.02%
Percent Change from Baseline in AM and PM Combined Nasal Symptom Score: Congestion, Median (Day 7): −18.37%
Percent Change from Baseline in AM and PM Combined Nasal Symptom Score: Itchy Nose, LS Mean (Day 7): −26.35%
Percent Change from Baseline in AM and PM Combined Nasal Symptom Score: Itchy Nose, Mean (Day 7): −25.83%
Percent Change from Baseline in AM and PM Combined Nasal Symptom Score: Itchy Nose, Median (Day 7): −21.57%
Percent Change from Baseline in AM and PM Combined Nasal Symptom Score: Runny Nose, LS Mean (Day 7): −18.66%
Percent Change from Baseline in AM and PM Combined Nasal Symptom Score: Runny Nose, Mean (Day 7): −18.92%
Percent Change from Baseline in AM and PM Combined Nasal Symptom Score: Runny Nose, Median (Day 7): −25.00%
Percent Change from Baseline in AM and PM Combined Nasal Symptom Score: Sneezing, LS Mean (Day 7): −40.66%
Percent Change from Baseline in AM and PM Combined Nasal Symptom Score: Sneezing, Mean (Day 7): −39.73%
Percent Change from Baseline in AM and PM Combined Nasal Symptom Score: Sneezing, Median (Day 7): −38.78%
Change from Baseline in AM and PM Combined Nasal Symptom Score: Congestion, LS Mean (Day 8): −1.24
Change from Baseline in AM and PM Combined Nasal Symptom Score: Congestion, Mean (Day 8): −1.27
Change from Baseline in AM and PM Combined Nasal Symptom Score: Congestion, Median (Day 8): −1.00
Change from Baseline in AM and PM Combined Nasal Symptom Score: Itchy Nose, LS Mean (Day 8): −1.15
Change from Baseline in AM and PM Combined Nasal Symptom Score: Itchy Nose, Mean (Day 8): −1.12
Change from Baseline in AM and PM Combined Nasal Symptom Score: Itchy Nose, Median (Day 8): −0.83
Change from Baseline in AM and PM Combined Nasal Symptom Score: Runny Nose, LS Mean (Day 8): −1.23
Change from Baseline in AM and PM Combined Nasal Symptom Score: Runny Nose, Mean (Day 8): −1.25
Change from Baseline in AM and PM Combined Nasal Symptom Score: Runny Nose, Median (Day 8): −1.00
Change from Baseline in AM and PM Combined Nasal Symptom Score: Sneezing, LS Mean (Day 8): −1.74
Change from Baseline in AM and PM Combined Nasal Symptom Score: Sneezing, Mean (Day 8): −1.73
Change from Baseline in AM and PM Combined Nasal Symptom Score: Sneezing, Median (Day 8): −1.55
Percent Change from Baseline in AM and PM Combined Nasal Symptom Score: Congestion, LS Mean (Day 8): −22.22%
Percent Change from Baseline in AM and PM Combined Nasal Symptom Score: Congestion, Mean (Day 8): −22.68%
Percent Change from Baseline in AM and PM Combined Nasal Symptom Score: Congestion, Median (Day 8): −18.64%
Percent Change from Baseline in AM and PM Combined Nasal Symptom Score: Itchy Nose, LS Mean (Day 8): −25.37%
Percent Change from Baseline in AM and PM Combined Nasal Symptom Score: Itchy Nose, Mean (Day 8): −24.80%
Percent Change from Baseline in AM and PM Combined Nasal Symptom Score: Itchy Nose, Median (Day 8): −18.92%
Percent Change from Baseline in AM and PM Combined Nasal Symptom Score: Runny Nose, LS Mean (Day 8): −24.85%
Percent Change from Baseline in AM and PM Combined Nasal Symptom Score: Runny Nose, Mean (Day 8): −24.97%
Percent Change from Baseline in AM and PM Combined Nasal Symptom Score: Runny Nose, Median (Day 8): −25.00%
Percent Change from Baseline in AM and PM Combined Nasal Symptom Score: Sneezing, LS Mean (Day 8): −38.54%
Percent Change from Baseline in AM and PM Combined Nasal Symptom Score: Sneezing, Mean (Day 8): −37.78%
Percent Change from Baseline in AM and PM Combined Nasal Symptom Score: Sneezing, Median (Day 8): −33.33%
